{
  "source": "paper PMC3020970",
  "about": "“K70Q Adds High-Level Tenofovir Resistance to “Q151M Complex” HIV Reverse Transcriptase through the Enhanced Discrimination Mechanism” (PLoS ONE, 2011)",
  "key": {"HIV-1 RT Q151Mc": {"target": "T1, HIV-1 RT Q151Mc (Human immunodeficiency virus type 1 group M subtype B, UniProt P03366, A661V/F676L/F715Y/Q750M/V674I)", "T1 construct": "made in house; host or cells: Escherichia coli BL21", "experiment": "Primer extension assay", "type": "biochemical", "description": "RT sequences coding for the p66 and p51 subunits of BH10 were cloned in the pRT dual vector, which is derived from pCDF-2 with LIC duet minimal adaptor (Novagen), using restriction sites PpuMI and SacI for the p51 subunit, and SacII and AvrII for the p66 subunit. RT was expressed in the Escherichia coli strain BL21 (Invitrogen) and purified by nickel affinity chromatography and MonoQ anion exchange chromatography. RT concentrations were determined spectrophotometrically based on absorption at […] using a calculated extinction coefficient (261,610 M^−1 cm^−1). The active site concentration of the various RT preparations was calculated as described below.\nDNA oligomers were synthesized by Integrated DNA Technologies (Coralville, IA). An 18-nucleotide DNA primer fluorescently labeled with Cy3 at the 5′ end (P18; 5′-Cy3 GTC CCT GTT CGG GCG CCA-3′) and a 100-nucleotide DNA template (T100; 5′-TAGTGTGTGCCCGTCTGTTGTGTGACTCTGGTAACTAGAGATCCCTCAGACCCTTTTAGTCAGTGTGGAAAATCTCTAGCAGTGGCGCCCGAACAGGGAC-3′) were used in primer extension assays. An 18-nucleotide DNA primer 5′-labeled with Cy3 (P18; 5′-Cy3 GTC ACT GTT CGA GCA CCA-3′) and a 31-nucleotide DNA template (T31; 5′- CCATAGCTAGCATTGGTGCTCGAACAGTGAC-3′) were used in the ATP rescue assay and pre-steady state kinetic experiments.\nThe enzyme (20 nM active sites) was incubated with 20 nM template/primer at 37°C in a buffer containing 50 mM Tris-HCl, pH 7.8 and 50 mM NaCl. The DNA synthesis was initiated by the addition of 1 µM dNTP and 10 mM MgCl2. The primer extension assays were carried out in the presence or absence of varying concentrations of TFV-DP. The reactions were terminated after 15 min by adding equal volume of 100% formamide containing traces of bromophenol blue. The extension products were resolved on a 7 M urea-15% polyacrylamide gel, and visualized by phosphor-imaging (FLA 5100, Fujifilm, Tokyo). We followed standard protocols that utilize the Multi Gauge software (Fujifilm) to quantitate primer extension, [44]. The results from dose response experiments were plotted using Prism 4 (GraphPad Software Inc., CA) and IC50 values for TFV-DP were obtained at midpoint concentrations."}, "HIV-1 RT K70Q": {"target": "T2, HIV-1 RT K70Q (Human immunodeficiency virus type 1 group M subtype B, UniProt P03366, K669Q)", "T2 construct": "made in house; host or cells: Escherichia coli BL21", "experiment": "Pre-steady state kinetics of binding and incorporation", "type": "biochemical", "description": "The reactions were quenched at various times (10 ms to 5 s) by adding EDTA to a final concentration of 50 mM. The amounts of product (P18-dAMP) were quantitated and fit to the following burst equation: [drawing 1] (1) where A is the amplitude of the burst phase that represents the RT-DNA complex at the start of the reaction, k obs is the observed burst rate constant for dNTP incorporation, k ss is the steady state rate constant, and t is the reaction time. The rate constant of the linear phase (kcat) can be estimated by dividing the slope of the linear phase by the enzyme concentration. The active site concentration and template/primer binding affinity (KD-DNA) were determined by plotting the amplitude (A) against the concentration of template/primer. The data were fit using non-linear regression to a quadratic equation: [drawing 2] (2) where KD is the dissociation constant for the RT-DNA complex, and [RT] is the concentration of active polymerase molecules. Subsequent biochemical experiments were performed using corrected active site concentrations, [43].\nHIV-1 RT (50 nM active sites) was pre-incubated with 50 nM T31/P18 in one syringe (Syringe A), whereas varying concentrations of dNTP and 10 mM MgCl2 were kept in another syringe (Syringe B). The solutions were rapidly mixed to initiate reactions, which were subsequently quenched at various times (5 ms to 10 s) by adding EDTA to a final concentration of 50 mM. The products from each quenched reaction were resolved, quantitated, and plotted as described above. The data were fit by non-linear regression to the burst equation (Eq 1).\nTo obtain the dissociation constant KD-dNTP for dNTP binding to the RT-DNA complex, the observed burst rates (kobs) were fit to the hyperbolic equation (Eq. 3) using nonlinear regression: [drawing 3] (3) where kpol is the optimal rate of dNTP incorporation."}},
  "note": "Several values for one entry are separate records, joined by “and”; a condition that tells them apart may be missing. Equal values may be shown once. Read-outs that look alike come from different tables or passages of the source.",
  "data": [
    {"compound": "CC(Cn1cnc2c(N)ncnc21)OCP(=O)(O)OP(=O)(O)OP(=O)(O)O", "note": "(stereo in doubt) [TFV-DP, tenofovir-diphosphate]", "values": [
      {"measurement": "Excision enhancement due to ATP (IC50 with ATP/IC50 without ATP)", "setting": "HIV-1 RT Q151Mc", "result": 2.7, "unit": "fold"},
      {"measurement": "IC50", "setting": "HIV-1 RT Q151Mc; with 3.5 mM ATP, read-out: IC50 of TFV-DP, with ATP", "result": "4 ± 0.341", "unit": "µM"},
      {"measurement": "Fold increase in IC50 vs WT RT, with ATP", "setting": "HIV-1 RT Q151Mc; with ATP", "result": "(2.1) fold"},
      {"measurement": "Fold increase in IC50 vs WT RT, without ATP", "setting": "HIV-1 RT Q151Mc; without ATP", "result": "(2.3) fold"},
      {"measurement": "IC50", "setting": "HIV-1 RT Q151Mc; without ATP, read-out: IC50 of TFV-DP, without ATP", "result": "1.5 ± 0.09", "unit": "µM"},
      {"measurement": "Selectivity (k pol/Kd)dATP/(k pol/Kd)TFV-DP", "setting": "HIV-1 RT K70Q; K70Q RT", "result": 6.1},
      {"measurement": "k pol/Kd", "setting": "HIV-1 RT K70Q; K70Q RT", "result": "360000 M⁻¹ s⁻¹ and 360000 ± 80000 M⁻¹ s⁻¹"},
      {"measurement": "Reduced affinity for TFV than the WT enzyme", "setting": "HIV-1 RT K70Q; K70Q RT vs WT RT", "result": "more than 4.5 fold"},
      {"measurement": "k pol", "setting": "HIV-1 RT K70Q; K70Q RT, T31/P18, 37°C", "result": "3.1 s⁻¹ and 3.1 ± 0.4 s⁻¹"},
      {"measurement": "Kd", "setting": "HIV-1 RT K70Q; K70Q RT, binding to RT-DNA complex", "result": "8.6 ± 1.5", "unit": "µM"}
    ]}
  ]
}
